Reference: article PMC8217813, “Bridging Computational Vaccinology and Vaccine Development Through Systematic Identification, Characterization, and Downselection of Conserved and Variable Circumsporozoite Protein CD4 T Cell Epitopes From Diverse Plasmodium falciparum Strains” (Frontiers in Immunology, 2021)
Peptide text beside a SMILES is read from it.

Legend:
HLA-DRB1*0101 = target: T1, HLA-DRB1*0101 (Homo sapiens, UniProt P01903+P01911, A100R/D57E/F55L/F60I/F76Y/I96L/L162R/M171V/P40L/Q125E/R42F/V115G/Y59C); experiment: In vitro class II HLA binding competition assay; details: competition with fluorescent-labeled reference peptide, class II HLA monomers, 24-hours, test peptide 100,000 nM to 100 nM, time-resolved fluorescence
T1 construct: purchased
Outline: (§1)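 Test peptides (final 100,000 nM to 100 nM, in DMSO) competed with a fluorescent high-binding reference peptide for limiting soluble class II HLA monomers in aqueous buffer over 24 h. Complexes were captured on anti-HLA-DR plates and read by europium time-resolved fluorescence; IC50 came from percent inhibition across the titration.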

HLA-DRB1*0401 = target: T2, HLA-DRB1*0401 (Homo sapiens, UniProt P01903+P01911, A100K/A169T/F76Y/I96L/K127E/L162R/M171V/N62H/P40V/Q125Y/R42H/S133A/S149N/S66Y/V115G/V209L/W38E); experiment: In vitro class II HLA binding competition assay
T2 construct: purchased
Outline: as §1

HLA-DRB1*1301 = HLA-DRB1*1301 (Homo sapiens, UniProt P01903+P01911, A100E/A169T/K41T/L162R/M171V/P40S/Q125H/Q178H/Q39Y/Q99D/R42S/S66N/T262R/W38E/Y61H); experiment: In vitro class II HLA binding competition assay; details: competition with fluorescent-labeled reference peptide, class II HLA monomers, 24-hours, test peptide 100,000 nM to 100 nM, time-resolved fluorescence
Outline: as §1

HLA-DRB1*0301 = HLA-DRB1*0301 (Homo sapiens, UniProt P01903+P01911, A100K/A102G/A103R/A169T/F55Y/I96L/K41T/L162R/M171V/P40S/Q125H/Q178H/Q39Y/R42S/S66N/T106N/T262R/W38E/Y61H); experiment: In vitro class II HLA binding competition assay; details: competition with fluorescent-labeled reference peptide, class II HLA monomers, 24-hours, test peptide 100,000 nM to 100 nM, time-resolved fluorescence
Outline: as §1

HLA-DRB1*1501 = target: T3, HLA-DRB1*1501 (Homo sapiens, UniProt P01903+P01911); experiment: In vitro class II HLA binding competition assay
T3 construct: purchased
Outline: as §1

HLA-DRB1*0701 = HLA-DRB1*0701 (Homo sapiens, UniProt P01903+P01911, A100R/A102G/A103Q/D57E/D86V/E43K/F76Y/K127E/L162R/M171V/P40G/Q125H/Q99D/R33Q/R42Y/R54Q/S133A/S66F/T210M/V115G/Y107V/Y59L/Y89S); experiment: In vitro class II HLA binding competition assay
Outline: as §1

HLA-DRB1*0801 = HLA-DRB1*0801 (Homo sapiens, UniProt P01903+P01911, A100R/A103L/A169T/D86S/F76Y/H45Y/I96F/K41T/L162R/M171V/P40S/Q125H/Q178H/Q39Y/Q99D/R218S/R42G/S66Y/V115G/W38E); experiment: In vitro class II HLA binding competition assay; details: competition with fluorescent-labeled reference peptide, class II HLA monomers, 24-hours, test peptide 100,000 nM to 100 nM, time-resolved fluorescence
Outline: as §1

HLA-DRB1*1101 = target: T4, HLA-DRB1*1101 (Homo sapiens, UniProt P01903+P01911, A100R/A169T/A87E/I96F/K41T/L162R/M171V/P40S/Q125H/Q178H/Q39Y/Q99D/R42S/S66Y/T262R/V115G/W38E); experiment: In vitro class II HLA binding competition assay; details: competition with fluorescent-labeled reference peptide, class II HLA monomers, 24-hours, test peptide 100,000 nM to 100 nM, time-resolved fluorescence
T4 construct: purchased
Outline: as §1

[1] = system: CD4 T cells co-cultured with autologous DCs from PBMCs; assay type: cell-based, human; details: positive = Stimulation Index ≥1.5-fold above baseline, 5 µg/mL peptide

CC[C@H](C)[C@H](NC(=O)[C@H](Cc1c[nH]cn1)NC(=O)[C@H](CCC(N)=O)NC(=O)[C@H](CC(=O)O)NC(C)=O)C(=O)N[C@@H](CCC(=O)O)C(=O)N[C@@H](CCCCN)C(=O)N[C@@H](Cc1ccc(O)cc1)C(=O)N[C@@H](CC(C)C)C(=O)N[C@@H](CCCCN)C(=O)N[C@H](C(=O)N[C@H](C(=O)N[C@@H](CCC(N)=O)C(=O)N[C@@H](CC(N)=O)C(=O)N[C@@H](CO)C(=O)N[C@@H](CC(C)C)C(=O)N[C@@H](CO)C(=O)N[C@H](C(=O)N[C@@H](CCC(=O)O)C(=O)N[C@@H](Cc1c[nH]c2ccccc12)C(=O)N[C@@H](CO)C(=O)N1CCC[C@H]1C(N)=O)[C@@H](C)O)[C@@H](C)CC)[C@@H](C)CC [ICS5] (Ac-DQHIEKYLKIIQNSLSTEWSP-NH2)
IC50 (HLA-DRB1*0101): 218 nM
IC50 (HLA-DRB1*0401): 35 nM
IC50 (HLA-DRB1*1301): 19.8 µM
IC50 (HLA-DRB1*0301): 84.7 µM
IC50 (HLA-DRB1*1501): 30 nM
IC50 (HLA-DRB1*0701): 3.68 µM
IC50 (HLA-DRB1*0801): 23.1 µM
IC50 (HLA-DRB1*1101): 5.55 µM
Percentage of donors demonstrating IFN-γ responses, DR1 ([1]; DR1 donors N=5, ICCS after 14-day co-culture): 80%
Percentage of donors demonstrating IL-2 responses, DR1 ([1]; DR1 donors N=5, ICCS): 20%
Percentage of donors demonstrating IL-4 responses, DR1 ([1]; DR1 donors N=5, ICCS): 0%
Percentage of donors demonstrating IL-10 responses, DR1 ([1]; DR1 donors N=5, ICCS): 0%
Percentage of donors demonstrating TNF-α responses, DR1 ([1]; DR1 donors N=5, ICCS): 40%
Percentage of donors demonstrating IFN-γ responses, DR3 ([1]; DR3 donors N=6, ICCS after 14-day co-culture): 33%
Percentage of donors demonstrating IL-2 responses, DR3 ([1]; DR3 donors N=6, ICCS): 0%
Percentage of donors demonstrating IL-4 responses, DR3 ([1]; DR3 donors N=6, ICCS): 33%
Percentage of donors demonstrating IL-10 responses, DR3 ([1]; DR3 donors N=6, ICCS): 17%
Percentage of donors demonstrating TNF-α responses, DR3 ([1]; DR3 donors N=6, ICCS): 17%
Percentage of donors demonstrating IFN-γ responses, DR4 ([1]; DR4 donors N=10, ICCS after 14-day co-culture): 60%
Percentage of donors demonstrating IL-2 responses, DR4 ([1]; DR4 donors N=10, ICCS): 40%
Percentage of donors demonstrating IL-4 responses, DR4 ([1]; DR4 donors N=10, ICCS): 0%
Percentage of donors demonstrating IL-10 responses, DR4 ([1]; DR4 donors N=10, ICCS): 0%
Percentage of donors demonstrating TNF-α responses, DR4 ([1]; DR4 donors N=10, ICCS): 40%
Percentage of donors demonstrating IFN-γ responses, DR7 ([1]; DR7 donors N=4, ICCS after 14-day co-culture): 75%
Percentage of donors demonstrating IL-2 responses, DR7 ([1]; DR7 donors N=4, ICCS): 25%
Percentage of donors demonstrating IL-4 responses, DR7 ([1]; DR7 donors N=4, ICCS): 25%
Percentage of donors demonstrating IL-10 responses, DR7 ([1]; DR7 donors N=4, ICCS): 0%
Percentage of donors demonstrating TNF-α responses, DR7 ([1]; DR7 donors N=4, ICCS): 0%
Percentage of donors demonstrating IFN-γ responses, DR8 ([1]; DR8 donors N=4, ICCS after 14-day co-culture): 25%
Percentage of donors demonstrating IL-2 responses, DR8 ([1]; DR8 donors N=4, ICCS): 0%
Percentage of donors demonstrating IL-4 responses, DR8 ([1]; DR8 donors N=4, ICCS): 0%
Percentage of donors demonstrating IL-10 responses, DR8 ([1]; DR8 donors N=4, ICCS): 0%
Percentage of donors demonstrating TNF-α responses, DR8 ([1]; DR8 donors N=4, ICCS): 75%
Percentage of donors demonstrating IFN-γ responses, DR9 ([1]; DR9 donors N=4, ICCS after 14-day co-culture): 50%
Percentage of donors demonstrating IL-2 responses, DR9 ([1]; DR9 donors N=4, ICCS): 25%
Percentage of donors demonstrating IL-4 responses, DR9 ([1]; DR9 donors N=4, ICCS): 0%
Percentage of donors demonstrating IL-10 responses, DR9 ([1]; DR9 donors N=4, ICCS): 25%
Percentage of donors demonstrating TNF-α responses, DR9 ([1]; DR9 donors N=4, ICCS): 50%
Percentage of donors demonstrating IFN-γ responses, DR11 ([1]; DR11 donors N=4, ICCS after 14-day co-culture): 100%
Percentage of donors demonstrating IL-2 responses, DR11 ([1]; DR11 donors N=4, ICCS): 50%
Percentage of donors demonstrating IL-4 responses, DR11 ([1]; DR11 donors N=4, ICCS): 0%
Percentage of donors demonstrating IL-10 responses, DR11 ([1]; DR11 donors N=4, ICCS): 0%
Percentage of donors demonstrating TNF-α responses, DR11 ([1]; DR11 donors N=4, ICCS): 75%
Percentage of donors demonstrating IFN-γ responses, DR13 ([1]; DR13 donors N=7, ICCS after 14-day co-culture): 43%
Percentage of donors demonstrating IL-2 responses, DR13 ([1]; DR13 donors N=7, ICCS): 14%
Percentage of donors demonstrating IL-4 responses, DR13 ([1]; DR13 donors N=7, ICCS): 14%
Percentage of donors demonstrating IL-10 responses, DR13 ([1]; DR13 donors N=7, ICCS): 0%
Percentage of donors demonstrating TNF-α responses, DR13 ([1]; DR13 donors N=7, ICCS): 43%
Percentage of donors demonstrating IFN-γ responses, DR15 ([1]; DR15 donors N=7, ICCS after 14-day co-culture): 43%
Percentage of donors demonstrating IL-2 responses, DR15 ([1]; DR15 donors N=7, ICCS): 0%
Percentage of donors demonstrating IL-4 responses, DR15 ([1]; DR15 donors N=7, ICCS): 0%
Percentage of donors demonstrating IL-10 responses, DR15 ([1]; DR15 donors N=7, ICCS): 14%
Percentage of donors demonstrating TNF-α responses, DR15 ([1]; DR15 donors N=7, ICCS): 29%
